Assay results published in patent publication US20250263396A1, “CRYSTALLINE FORMS OF 3-(5-(2-HYDROXY-2- METHYLPROPOXY)-6-METHYPYRAZIN-2-YL)-1H-INDOLE-7-CARBONITRILE” (NIDO BIOSCIENCES, INC., priority 2024, published 2025).
Like-named read-outs stand apart in the source and are kept apart here.

Tests used:
[1] = Hygroscopicity by dynamic vapor sorption (DVS); assay type: physicochemical
Experimental: Dynamic vapor sorption (DVS) was performed on an Intrinsic, Advantage or Adventure with an oven temperature of 25° C. using water as a solvent. The sample mass was about 5-10 mg using the following method: • Cycle: 40-0-95-0-40% RH • Stage Step: 10% • Equilibrium: 0.002 dm/dt (%/min) • Minimum dm/dt stability duration: 60 min • Maximum dm/dt stage time: 360 min.
Hygroscopicity of Form P was evaluated by dynamic vapor sorption (DVS) test at 25° C. Form P is non-hygroscopic at 80% RH; about 0.1% water uptake at 80% RH. Form P is slightly hygroscopic from 80% RH-95% RH: About 1.6% water uptake from 80% RH to 95% RH.

[2] = Wet granulation simulation experiments; assay type: physicochemical
Experimental: Water or ethanol was added drop wise to about 10 mg of Form P until the sample is wetted sufficiently. Wet sample was ground gently with in a mortar and a pestle. Post granulation sample was dried under ambient condition for 10 min.
Water or ethanol was added drop wise to about 10 mg of Form C until the sample is wetted sufficiently. Wet sample was ground gently with in a mortar and a pestle. Post granulation sample was dried under ambient condition for 5 min.

[3] = Equilibration with solvents; assay type: physicochemical
Experimental: Obtained suspensions were filtered through a 0.45 μm nylon membrane filter by centrifugation at 14,000 rpm. Solid parts (wet cakes) were investigated by XRPD. For samples with different XRPD patterns, additional analysis including DSC, TGA, ^1H-NMR were performed.
(§1) Obtained suspensions were filtered through a 0.45 μm nylon membrane filter by centrifugation at 14,000 rpm.
as §1

[4] = Form change on heating, dehydration or desolvation (TGA, DSC, variable temperature XRPD); assay type: physicochemical; conditions: heated above 176° C. using milled Form P, variable temperature XRPD
Experimental: Relative stability of the anhydrates Form R and Form P was investigated by variable temperature XRPD and competitive equilibration experiments.
Relative stability of the anhydrates Form B, Form X, Form Y and Form C was investigated by variable temperature XRPD. Form B converted to Form X, Form Y and Form C after heating to 150° C., 176° C. and 180° C., respectively.

[5] = 24 hours; for XRPD: residual solids; for pH: supernatant
Experimental: Non-milled Form P (10 mg, purity 100%) was weighed into a 20 mL glass vial. 5 mL of solubility medium was added. Obtained suspensions were stirred at 37° C. at 400 rpm and sampled at 24 hours. The samples were centrifuged at 37 C at 14,000 rpm for 5 min. Supernatants were analyzed by HPLC and pH meter for solubility and pH value, respectively. Residual solids (wet cakes) from the 24 hours samples were also characterized by XRPD to determine physical form.

physchem = conditions: water, thermodynamic from solid, Approximate solubility
Experimental: Form P (5 mg, purity 100%) was weighed to a 2 mL glass vial. 20 μL aliquots of each solvent were added to dissolve the drug substance at 25 C. […] Vortex and sonication were applied to assist dissolution. Max. volume of each solvent added is 1 mL. For obtained suspensions (Exp. ID 1, 10 and 11) after addition of 1 mL solvent at 25° C., they were placed at 50° C. Approximate solubility was determined by visual observation.

[6] = 10% relative humidity at 25° C.
[7] = 20% relative humidity at 25° C.
[8] = 30% relative humidity at 25° C.
[9] = 40% relative humidity at 25° C.
[10] = 50% relative humidity at 25° C.
[11] = 60% relative humidity at 25° C.
[12] = 70% relative humidity at 25° C.
[13] = 80% relative humidity at 25° C.
[14] = 90% relative humidity at 25° C.
[15] = 95% relative humidity at 25° C.
[16] = pH 1.2 HCl buffer (0.1N), 37° C.
[17] = pH 3 citrate buffer (50 mM), 37° C.
[18] = pH 5 acetate buffer (50 mM), 37° C.
[19] = pH 7 phosphate buffer (50 mM), 37° C.

Cc1nc(-c2c[nH]c3c(C#N)cccc23)cnc1OCC(C)(C)O [Form P, 3-(5-(2-hydroxy-2-methylpropoxy)-6-methylpyrazin-2-yl)-1H-indole-7-carbonitrile]
1st desorp. Weight % change ([1]; 0% relative humidity at 25° C.): 0.1%
1st sorp. Weight % change ([1]; 0% relative humidity at 25° C.): 0.1%
2nd desorp. Weight % change ([1]; 0% relative humidity at 25° C.): 0.0%
2nd sorp. Weight % change ([1]; 0% relative humidity at 25° C.): 0.0%
1st desorp. Weight % change [1, 6]: 0.1%
1st sorp. Weight % change [1, 6]: 0.1%
2nd desorp. Weight % change [1, 6]: 0.0%
2nd sorp. Weight % change [1, 6]: 0.0%
1st desorp. Weight % change [1, 7]: 0.1%
1st sorp. Weight % change [1, 7]: 0.1%
2nd desorp. Weight % change [1, 7]: 0.0%
2nd sorp. Weight % change [1, 7]: 0.0%
Form after the DVS test ([1]; 25° C.): still in Form P
1st desorp. Weight % change [1, 8]: 0.2%
1st sorp. Weight % change [1, 8]: 0.1%
2nd desorp. Weight % change [1, 8]: 0.1%
2nd sorp. Weight % change [1, 8]: 0.0%
1st desorp. Weight % change [1, 9]: 0.2%
1st sorp. Weight % change [1, 9]: 0.1%
2nd desorp. Weight % change [1, 9]: 0.1%
2nd sorp. Weight % change [1, 9]: 0.0%
1st sorp. Weight % change [1, 10]: 0.1%
2nd desorp. Weight % change [1, 10]: 0.1%
1st sorp. Weight % change [1, 11]: 0.1%
2nd desorp. Weight % change [1, 11]: 0.2%
1st sorp. Weight % change [1, 12]: 0.1%
2nd desorp. Weight % change [1, 12]: 0.3%
1st sorp. Weight % change [1, 13]: 0.2%
2nd desorp. Weight % change [1, 13]: 0.4%
1st sorp. Weight % change [1, 14]: 0.8%
2nd desorp. Weight % change [1, 14]: 0.9%
1st sorp. Weight % change [1, 15]: 1.8%
2nd desorp. Weight % change [1, 15]: 1.8%
Hygroscopicity ([1]; at 80% RH, 25° C.): non-hygroscopic (water uptake <0.2% = non-hygroscopic)
water uptake ([1]; at 80% RH, 25° C.): about 0.1%
water uptake ([1]; from 80% RH to 95% RH, 25° C.): About 1.6%
Hygroscopicity ([1]; from 80% RH-95% RH, 25° C.): slightly hygroscopic (water uptake ≥0.2% but <2% = slightly hygroscopic)
Comments (crystallinity) ([2]; granulation solvent Ethanol): No obvious change in crystallinity
XRPD ([2]; granulation solvent Ethanol): Form P
Comments (crystallinity) ([2]; granulation solvent Water): No obvious change in crystallinity
XRPD ([2]; granulation solvent Water): Form P
XRPD after equilibration ([3]; 2-MeTHF, 25° C., 2 weeks): Form P
XRPD after equilibration ([3]; 2-MeTHF, 50° C., 1 week): Form P
XRPD after equilibration ([3]; 2-MeTHF/heptane (v:v = 1:1), 25° C., 2 weeks): Form P
XRPD after equilibration ([3]; 2-MeTHF/heptane (v:v = 1:1), 50° C., 1 week): Form P
XRPD after equilibration ([3]; 2-MeTHF/heptane (v:v = 3:1), 25° C., 2 weeks): Form P
XRPD after equilibration ([3]; 2-MeTHF/heptane (v:v = 3:1), 50° C., 1 week): Form P
XRPD after equilibration ([3]; 2-Propanol, 25° C., 2 weeks): Form P
XRPD after equilibration ([3]; 2-Propanol, 50° C., 1 week): Form P
XRPD after equilibration ([3]; Acetone, 25° C., 2 weeks): Form P
XRPD after equilibration ([3]; Acetone, 50° C., 1 week): Form P
XRPD after equilibration ([3]; Acetone/water (v:v = 30:70) a.w. = 0.92, 50° C., 1 week): Form P
XRPD after equilibration ([3]; Acetonitrile, 25° C., 2 weeks): Form P
XRPD after equilibration ([3]; Acetonitrile, 50° C., 1 week): Form P
XRPD after equilibration ([3]; DMSO, 25° C., 2 weeks): Form U
Comments (appearance) ([3]; DMSO, 50° C., 1 week, (500 mg/mL)): Clear solution
XRPD after equilibration ([3]; DMSO/water (v:v = 40:60) a.w. = 0.77, 50° C., 1 week): Form P
XRPD after equilibration ([3]; Ethanol, 25° C., 2 weeks): Form P
XRPD after equilibration ([3]; Ethanol, 50° C., 1 week): Form P
XRPD after equilibration ([3]; Ethanol/water (v:v = 40:60) a.w. = 0.91, 25° C., 2 weeks): Form P
XRPD after equilibration ([3]; Ethanol/water (v:v = 40:60) a.w. = 0.91, 50° C., 1 week): Form P
XRPD after equilibration ([3]; Ethyl acetate, 25° C., 2 weeks): Form P
XRPD after equilibration ([3]; Ethyl acetate, 50° C., 1 week): Form P
XRPD after equilibration ([3]; Heptane, 25° C., 2 weeks): Form P
XRPD after equilibration ([3]; Heptane, 50° C., 1 week): Form P
XRPD after equilibration ([3]; Isopropyl acetate, 25° C., 2 weeks): Form P
XRPD after equilibration ([3]; Isopropyl acetate, 50° C., 1 week): Form P
XRPD after equilibration ([3]; MEK, 25° C., 2 weeks): Form P
XRPD after equilibration ([3]; MEK, 50° C., 1 week): Form P
XRPD after equilibration ([3]; MTBE, 25° C., 2 weeks): Form P
XRPD after equilibration ([3]; MTBE, 50° C., 1 week): Form P
XRPD after equilibration ([3]; Methanol, 25° C., 2 weeks): Form B + Form W
XRPD after equilibration ([3]; Methanol, 50° C., 1 week): Form P
XRPD after equilibration ([3]; NMP, 25° C., 2 weeks): Form Q
Comments (appearance) ([3]; NMP, 50° C., 1 week, (500 mg/mL)): Clear solution
XRPD after equilibration ([3]; THF, 25° C., 2 weeks): Form P
Comments (appearance) ([3]; THF, 50° C., 1 week, (250 mg/mL)): Clear solution
Comments (appearance) ([3]; THF/water (v:v = 80:20) a.w. = 0.91, 50° C., 1 week, (500 mg/mL)): Clear solution
XRPD after equilibration ([3]; Toluene, 25° C., 2 weeks): Form P
XRPD after equilibration ([3]; Toluene, 50° C., 1 week): Form P
XRPD after equilibration ([3]; Water, 25° C., 2 weeks): Form P
XRPD after equilibration ([3]; Water, 50° C., 1 week): Form P
Form after heating [4]: converted to Form R
XRPD ([5]; FaSSGF, pH 1.6, 37° C.): Form P
XRPD ([5]; FaSSIF-v1, pH 6.5, 37° C.): Form P
XRPD ([5]; FeSSIF-v1, pH 5.0, 37° C.): Form P
XRPD ([5]; Water, 37° C.): Form P
XRPD [5, 16]: Form P
XRPD [5, 17]: Form P
XRPD [5, 18]: Form P + one additional peak (It
XRPD [5, 19]: Form P
pH ([5]; FaSSGF, pH 1.6, 37° C.): 1.5
pH ([5]; FaSSIF-v1, pH 6.5, 37° C.): 6.4
pH ([5]; FeSSIF-v1, pH 5.0, 37° C.): 4.9
pH ([5]; Water, 37° C.): 7.7
pH [5, 16]: 1.1
pH [5, 17]: 3.0
pH [5, 18]: 4.9
pH [5, 19]: 6.9
solubility (physchem; 25 °C): < 5000 µg/mL
solubility (physchem; 50 °C): < 5000 µg/mL
